Measured values published in US20250376472A1, “3-(PHENYLSULFONYL)-[1,2,3]TRIAZOLO[1,5A]QUINAZOLIN-5(4H)-ONE DERIVATIVES” (priority 2022, published 2025).

Molecular target: T1, AgrA (Staphylococcus aureus, UniProt P0A0I7)
T1 construct: endogenous in cells; host or cells: S. aureus USA300 strain UAMS-1625 carrying a P3-lacZ reporter plasmid
Assay: cell-based
Design: species or system S. aureus
Details: for Ratio IC50 (in presence of HSA)/IC50 (in absence of HSA): 40 mg/mL HSA versus no HSA
Description: The inventive compounds are 3-(phenylsulfonyl)-[1,2,3]triazolo[1,5a]quinazolin-5(4h)-one derivatives comprising an N-bound piperazine or homopiperazine at the 8-position of the [1,2,3]triazolo[1,5a]quinazolin-5(4h)-one core, further substituted (on the second nitrogen atom) by an (optionally substituted) acetyl or propionyl amide group. […] Specifically, the reporter gene lacZ (which encodes the protein product β-galactosidase) was transfected into S. aureus with a plasmid under control of the P3 promoter. The compounds were serially diluted in lysogeny broth (LB), and incubated with S. aureus. Following incubation, the S. aureus cells were lysed and treated with 4-methylumbelliferyl-galactopyranoside (MUG). The β-galactosidase produced by expression of lacZ cleaved the MUG into galactopyranose and 4-methylumbelliferone, which was measured by fluorescence.
The resulting reporter strain was used to measure AgrA inhibitory activity as follows. From an overnight culture plate, cells were resuspended in 0.9% (w/v) saline solution and bacterial inoculum was prepared in LB medium with 5×10^5 CFU/ml. Compounds were two-fold serially diluted in LB and 50 μL of this 10× concentrated samples were added into the 96-deep well plate. 500 μL of bacterial suspension was finally added to the compounds or DMSO control. Plates were covered and incubated with shaking at 37° C. After 18 hours incubation, 100 μL was transferred to a new clear 96-well plate and the OD600 was measured using a TECAN Infinite F200 microplate reader to control for growth inhibition. Another 100 μL was transferred to a new black 96-well plate containing 30 μL of lysis buffer (20 mM Tris/HCl, 3 mM MgCl2, 0.5% Tween 20 (v/v), 0.5% NP-40 (v/v)) and the plate was incubated with shaking at 37° C. for 60 min. 20 μL of the substrate MUG (4-Methylumbelliferyl O-D-galactopyranoside) at 0.25 mg/ml was added and the fluorescence (excitation: 360 nm, emission: 450 mu) was measured with a TECAN Infinite F200 microplate reader after 3 hours incubation at 37° C. with shaking. The IC50 was determined using GraphPad PRISM after normalization to DMSO control.

[1] = LB medium supplemented with human serum albumin 40 mg/mL
[2] = LB medium, no human serum albumin, 18 hours incubation
[3] = IC50 at 40 mg/mL HSA, LB medium supplemented with human serum albumin 40 mg/mL
[4] = IC50 without HSA, LB medium, no human serum albumin, 18 hours incubation

T1 sequence (P0A0I7 whole entry): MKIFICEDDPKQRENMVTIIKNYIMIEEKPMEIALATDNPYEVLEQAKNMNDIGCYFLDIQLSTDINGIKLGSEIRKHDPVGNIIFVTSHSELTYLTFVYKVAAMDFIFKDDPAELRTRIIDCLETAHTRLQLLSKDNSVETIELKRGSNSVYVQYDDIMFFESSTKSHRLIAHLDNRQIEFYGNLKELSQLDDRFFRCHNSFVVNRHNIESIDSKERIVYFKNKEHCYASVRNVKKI

Compound	Ratio IC50 (in presence of HSA)/IC50 (in absence of HSA)	IC50 at 40 mg/mL HSA [1]	IC50 without HSA [2]	IC50 [3] [µM]	IC50 [4] [µM]
Cc1ccc(S(=O)(=O)c2nnn3c2[nH]c(=O)c2ccc(N4CCN(CC(=O)N5CC(C)CC(C)C5)CC4)cc23)c(C)c1 (mixture of isomers) [Compound 63]	++ (++: 25 < ratio ≤ 125)	++ (++: 10 μg/mL < IC50 ≤ 50 μg/mL)	+++ (+++: IC50 ≤ 1 μg/mL)	–	–
Cc1ccc(S(=O)(=O)c2nnn3c2[nH]c(=O)c2ccc(N4CCCN(CCC(=O)N5CCCC5)CC4)cc23)c(C)c1 [Compound 163]	–	–	–	< 17.3	1.73 to 8.65
Cc1ccc(S(=O)(=O)c2nnn3c2[nH]c(=O)c2ccc(N4CCN(CC(=O)N5CCN(C6CC6)CC5)CC4)cc23)c(C)c1 [Compound 60]	–	–	–	< 16.5	< 1.65
Cc1ccc(S(=O)(=O)c2nnn3c2[nH]c(=O)c2ccc(N4CCN(CC(=O)NC5CCNCC5)CC4)cc23)c(C)c1 [Compound 140]	–	–	–	17.3 to 86.4	1.73 to 8.64
Cc1ccc(S(=O)(=O)c2nnn3c2[nH]c(=O)c2ccc(N4CCN(CC(=O)Nc5ccccc5)CC4)cc23)c(C)c1 [Compound 104]	–	–	–	17.5 to 87.5	< 1.75
Cc1ccc(S(=O)(=O)c2nnn3c2[nH]c(=O)c2ccc(N4CCCN(CC(=O)NC5CCCCC5)CC4)cc23)c(C)c1 [Compound 53]	+++ (+++: ratio ≤ 25)	++ (++: 10 μg/mL < IC50 ≤ 50 μg/mL)	++ (++: 1 μg/mL < IC50 ≤ 5 μg/mL)	–	–
CNC(=O)CN1CCN(c2ccc3c(=O)[nH]c4c(S(=O)(=O)c5ccc(C)cc5C)nnn4c3c2)CC1 [Compound 3]	–	–	–	< 19.6	< 1.96
CCN(C)C(=O)CN1CCN(c2ccc3c(=O)[nH]c4c(S(=O)(=O)c5ccc(C)cc5C)nnn4c3c2)CC1 [Compound 9]	–	–	–	18.6 to 93	< 1.86
Cc1ccc(S(=O)(=O)c2nnn3c2[nH]c(=O)c2ccc(N4CCN(CC(=O)NCCCC5CCCCC5)CC4)cc23)c(C)c1 [Compound 44]	–	–	–	16.1 to 80.7	1.61 to 8.07
Cc1ccc(S(=O)(=O)c2nnn3c2[nH]c(=O)c2ccc(N4CCN(CC(=O)N5CCOCC5)CC4)cc23)c(C)c1 [Compound 2, 3-(2,4-dimethylphenyl)sulfonyl-8-[4-(2-morpholino-2-oxo-ethyl)piperazin-1-yl]-4H-triazolo[1,5-a]quinazolin-5-one]	+++ (+++: ratio ≤ 25)	–	–	< 17.7	< 1.77
Cc1ccc(S(=O)(=O)c2nnn3c2[nH]c(=O)c2ccc(N4CCN(CC(=O)NCCC5CCCN5C)CC4)cc23)c(C)c1 (stereo not shown) [Compound 95]	+++ (+++: ratio ≤ 25)	++ (++: 10 μg/mL < IC50 ≤ 50 μg/mL)	++ (++: 1 μg/mL < IC50 ≤ 5 μg/mL)	–	–
Cc1ccc(S(=O)(=O)c2nnn3c2[nH]c(=O)c2ccc(N4CCN(CC(=O)N5CCCC5CO)CC4)cc23)c(C)c1 (stereo not shown) [Compound 76]	+++ (+++: ratio ≤ 25)	++ (++: 10 μg/mL < IC50 ≤ 50 μg/mL)	++ (++: 1 μg/mL < IC50 ≤ 5 μg/mL)	–	–
Cc1ccc(S(=O)(=O)c2nnn3c2[nH]c(=O)c2ccc(N4CCN(CC(=O)NCC(C)C)CC4)cc23)c(C)c1 [Compound 7]	–	–	–	18.1 to 90.6	< 1.81
Cc1ccc(S(=O)(=O)c2nnn3c2[nH]c(=O)c2ccc(N4CCN(CC(=O)NCC5CCCO5)CC4)cc23)c(C)c1 (stereo not shown) [Compound 96]	–	–	–	17.3 to 86.3	< 1.73
Cc1ccc(S(=O)(=O)c2nnn3c2[nH]c(=O)c2ccc(N4CCN(CC(=O)NCc5ccccc5)CC4)cc23)c(C)c1 [Compound 106]	–	–	–	17.1 to 85.4	< 1.71
Cc1ccc(S(=O)(=O)c2nnn3c2[nH]c(=O)c2ccc(N4CCN(CC(=O)NCCN5CCCC5)CC4)cc23)c(C)c1 [Compound 94]	–	–	–	16.9 to 84.4	1.69 to 8.44
Cc1ccc(S(=O)(=O)c2nnn3c2[nH]c(=O)c2ccc(N4CCN(CC(=O)NC5CCC5)CC4)cc23)c(C)c1 [Compound 34]	–	–	–	18.2 to 91	< 1.82
Cc1ccc(S(=O)(=O)c2nnn3c2[nH]c(=O)c2ccc(N4CCN(CC(=O)N5CCC(N)CC5)CC4)cc23)c(C)c1 [Compound 141]	–	–	–	< 17.3	1.73 to 8.64
Cc1ccc(S(=O)(=O)c2nnn3c2[nH]c(=O)c2ccc(N4CCN(CC(=O)N5CCCN(C(C)C)CC5)CC4)cc23)c(C)c1 [Compound 70]	–	–	–	16.1 to 80.5	< 1.61
Cc1ccc(S(=O)(=O)c2nnn3c2[nH]c(=O)c2ccc(N4CCCN(CC(=O)Nc5ccccc5)CC4)cc23)c(C)c1 [Compound 122]	–	–	–	17.1 to 85.4	< 1.71

Compound	Ratio IC50 (in presence of HSA)/IC50 (in absence of HSA)	IC50 at 40 mg/mL HSA [1]	IC50 without HSA [2]	IC50 [3] [µM]	IC50 [4] [µM]
Cc1ccc(S(=O)(=O)c2nnn3c2[nH]c(=O)c2ccc(N4CCN(CC(=O)NCCN5CCOCC5)CC4)cc23)c(C)c1 [Compound 91]	–	–	–	16.4 to 82.1	1.64 to 8.21
COCCNC(=O)CN1CCN(c2ccc3c(=O)[nH]c4c(S(=O)(=O)c5ccc(C)cc5C)nnn4c3c2)CC1 [Compound 16]	–	–	–	< 18.1	< 1.81
CCNC(=O)CN1CCN(c2ccc3c(=O)[nH]c4c(S(=O)(=O)c5ccc(C)cc5C)nnn4c3c2)CC1 [Compound 4]	–	–	–	< 19.1	< 1.91
Cc1ccc(S(=O)(=O)c2nnn3c2[nH]c(=O)c2ccc(N4CCN(CC(=O)NCCCN5CCCC5=O)CC4)cc23)c(C)c1 [Compound 97]	–	–	–	16.1 to 80.5	1.61 to 8.05
Cc1ccc(S(=O)(=O)c2nnn3c2[nH]c(=O)c2ccc(N4CCN(CC(=O)NCC5CCCCC5)CC4)cc23)c(C)c1 [Compound 40]	–	–	–	< 16.9	< 1.69
Cc1ccc(S(=O)(=O)c2nnn3c2[nH]c(=O)c2ccc(N4CCN(CC(=O)NCCC(F)(F)F)CC4)cc23)c(C)c1 [Compound 14]	–	–	–	16.9 to 84.5	< 1.69
Cc1ccc(S(=O)(=O)c2nnn3c2[nH]c(=O)c2ccc(N4CCN(CC(=O)NC5CCCNC5)CC4)cc23)c(C)c1 (stereo not shown) [Compound 142]	–	–	–	< 17.3	1.73 to 8.64
CCCNC(=O)CN1CCCN(c2ccc3c(=O)[nH]c4c(S(=O)(=O)c5ccc(C)cc5C)nnn4c3c2)CC1 [Compound 30]	–	–	–	18.1 to 90.6	< 1.81
Cc1ccc(S(=O)(=O)c2nnn3c2[nH]c(=O)c2ccc(N4CCCN(CC(=O)N5CCOCC5)CC4)cc23)c(C)c1 [Compound 84]	+++ (+++: ratio ≤ 25)	+++ (+++: IC50 ≤ 10 μg/mL)	++ (++: 1 μg/mL < IC50 ≤ 5 μg/mL)	–	–
Cc1ccc(S(=O)(=O)c2nnn3c2[nH]c(=O)c2ccc(N4CCN(CC(=O)NCCN)CC4)cc23)c(C)c1 [Compound 131]	–	–	–	18.6 to 92.8	1.86 to 9.28
COCCCNC(=O)CN1CCN(c2ccc3c(=O)[nH]c4c(S(=O)(=O)c5ccc(C)cc5C)nnn4c3c2)CC1 [Compound 17]	–	–	–	17.6 to 88.1	< 1.76
Cc1ccc(S(=O)(=O)c2nnn3c2[nH]c(=O)c2ccc(N4CCN(CC(=O)N5CCC5)CC4)cc23)c(C)c1 [Compound 54]	–	–	–	18.7 to 93.3	< 1.87
Cc1ccc(S(=O)(=O)c2nnn3c2[nH]c(=O)c2ccc(N4CCN(CC(=O)NCCC(C)C)CC4)cc23)c(C)c1 [Compound 11]	–	–	–	17.7 to 88.4	< 1.77
Cc1ccc(S(=O)(=O)c2nnn3c2[nH]c(=O)c2ccc(N4CCN(CC(=O)NCCc5cccs5)CC4)cc23)c(C)c1 [Compound 116]	–	–	–	16.5 to 82.5	< 1.65
CCN1CCCC1CNC(=O)CN1CCN(c2ccc3c(=O)[nH]c4c(S(=O)(=O)c5ccc(C)cc5C)nnn4c3c2)CC1 (stereo not shown) [Compound 93]	–	–	–	< 16.5	1.65 to 8.24
Cc1ccc(S(=O)(=O)c2nnn3c2[nH]c(=O)c2ccc(N4CCN(CC(=O)NCCC(C)(C)C)CC4)cc23)c(C)c1 [Compound 13]	–	–	–	17.2 to 86.2	< 1.72
Cc1ccc(S(=O)(=O)c2nnn3c2[nH]c(=O)c2ccc(N4CCN(CC(=O)NCC5CCCC5)CC4)cc23)c(C)c1 [Compound 37]	–	–	–	< 17.3	< 1.73
Cc1ccc(S(=O)(=O)c2nnn3c2[nH]c(=O)c2ccc(N4CCN(CC(=O)NCCN5CCN(C)CC5)CC4)cc23)c(C)c1 [Compound 89]	–	–	–	16.1 to 80.4	1.61 to 8.04
Cc1ccc(S(=O)(=O)c2nnn3c2[nH]c(=O)c2ccc(N4CCN(CC(=O)N5CCCC5)CC4)cc23)c(C)c1 [Compound 1, 3-(2,4-dimethylphenyl)sulfonyl-8-[4-(2-oxo-2-pyrrolidin-1-yl-ethyl)piperazin-1-yl]-4H-triazolo[1,5-a]quinazolin-5-one]	++ (++: 25 < ratio ≤ 125)	–	–	18.2 to 91	< 1.82
